Measured values published in patent US10888545B2, “Compositions and methods for treating estrogen-related medical disorders” (THE BOARD OF TRUSTEES OF THE UNIVERSITY OF ILLINOIS, priority 2012, dated 2021).
Like-named read-outs stand apart in the source and are kept apart here.

What was measured:
[1] = Body weights of mice bearing T47D:A18/neo tumors; assay type: in vivo; settings: seven week treatment, 1.5 mg/day p.o.
From the text: B) Body weights of treated mice from (A). C) Uterine weights from mice in (A). Weights are reported as uterine weight (mg)/body weight (g). *, P<0.05 versus control. Graphs show mean SEM.
Since BTC and TTC-352 treatment result in growth of T47D:A18/neo cells in 2D culture (FIGS. 1C and 1E) and in 3D […] (FIG. 2A), we next sought to determine if BTC and TTC-352 could sustain the growth of T47D:A18/neo tumors in vivo. […] Additionally, no significant weight loss was observed over the seven week treatment period (FIG. 5B).

[2] = Plasma levels of BTC after oral administration to mice; assay type: in vivo; settings: single oral dose 10 mg/kg, ovariectomized athymic nude mice
T47D:A18/PKCα tumors = assay: T47D:A18/PKCα xenograft tumor regression; assay type: in vivo, mice; settings: for persistence of T47D:A18/PKCα tumor regression after end of treatment: after two weeks of 1.5 mg/day p.o.; for T47D:A18/PKCα mean tumor size / T47D:A18/PKCα tumor regression: at two weeks; for T47D:A18/PKCα mean tumor size: 1.5 mg/day p.o.; for T47D:A18/PKCα tumor regression: 1.5 mg/day p.o. (E2: capsule), start ~0.5 cm^2 = 100%
ERα = molecular target: T1, ERα (Homo sapiens, UniProt P03372); assay: ERα localization in T47D:A18/PKCα tumors by immunofluorescence; assay type: in vivo, mice; settings: immunofluorescence staining of tumors
T1 sequence (P03372 1-595): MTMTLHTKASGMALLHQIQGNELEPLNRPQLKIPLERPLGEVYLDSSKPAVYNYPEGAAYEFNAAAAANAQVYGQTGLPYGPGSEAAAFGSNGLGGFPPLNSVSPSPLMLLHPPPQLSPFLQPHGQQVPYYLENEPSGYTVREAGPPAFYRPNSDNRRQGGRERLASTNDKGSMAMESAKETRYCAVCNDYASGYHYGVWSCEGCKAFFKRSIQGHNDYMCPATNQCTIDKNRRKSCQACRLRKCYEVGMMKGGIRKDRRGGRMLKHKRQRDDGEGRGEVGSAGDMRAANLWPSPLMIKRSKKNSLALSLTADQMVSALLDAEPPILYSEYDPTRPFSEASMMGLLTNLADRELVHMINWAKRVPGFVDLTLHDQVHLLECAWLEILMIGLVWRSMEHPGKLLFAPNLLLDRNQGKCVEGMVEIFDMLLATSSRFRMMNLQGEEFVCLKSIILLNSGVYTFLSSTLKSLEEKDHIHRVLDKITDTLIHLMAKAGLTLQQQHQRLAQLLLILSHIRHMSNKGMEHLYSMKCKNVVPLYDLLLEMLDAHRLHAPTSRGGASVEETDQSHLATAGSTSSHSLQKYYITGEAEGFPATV
Protocol: Tumor immunofluorescence confocal microscopy and co-localization analysis. Tumor sections (4 μm) were cut from paraffin blocks and prepared for IF staining by deparaffinization and rehydration. Antigen retrieval was performed by incubating slides in Tris-EDTA (pH=9.0) buffer at 90° C. and allowed to cool at room temperature for 45 min. Slides were blocked with antibody diluent (DAKO, Carpinteria, Calif. USA) for 20 min followed by primary antibody at 1:100 in antibody diluent for 1 h at room temperature. Slides were incubated with fluorescence-conjugated secondary antibodies at 1:100 in antibody diluent for 45 min at room temperature followed by DAPI (4′, 6-diamidino-2-phenylindole [1 μg/mL], DAKO, Carpinteria, Calif. USA) for 15 min. Slides were mounted with Vectashield mounting media (Vector Laboratories, Burlingame, Calif. USA). Confocal analysis was performed with a Zeiss LSM 510 microscope (Carl Zeiss, Incorporated, North America, Thornwood, N.Y. USA).
We have previously reported the possible involvement of an extranuclear ER in E2-induced tumor regression (11, 15).

[3] = system: MCF-7 human mammary cancer cells; settings: references 16-19; cited from earlier work
T47D:A18/neo cells [4] = assay: DNA growth assay (2D culture), T47D:A18/neo; assay type: cell-based; settings: only the higher concentration, 100 nM, E2 1 nM
T47D:A18/neo cells [5] = assay: Colony formation assay in […], T47D:A18/neo; assay type: cell-based; settings: 3D culture, 10 days; E2 1 nM, BTC 100 nM, TTC-352 100 nM
Protocol: (§1) Colony formation assay in […] Matrix. […] (Becton Dickinson, Franklin Lakes, N.J. USA) was thawed overnight at 4° C. Twelve-well plates were coated with 200 μL […]/well and incubated at 37° C. for 30 min. Cells were suspended at 5×103 in 400 μL of phenol red-free RPMI 1640 and spread onto pre-gelled […] and allowed to incubate at 37° C. for 30 minutes, and 360 μL of treatment media containing 40 μL […] was then added. Plates were incubated at 37° C. for 10 days; medium containing 10% […] was replaced to the top of the […] every 3 days. Colonies were stained with crystal violet on day 10 and each well was counted by light microscopy (20×).
(§2) These concentrations were selected on the basis of proliferative effects in 2D cultures.

[6] = system: ERα transcriptional activity in T47D:A18/neo cells; assay type: cell-based
uteri [7] = assay: Uterine weights of ovariectomized athymic mice (7 weeks); assay type: in vivo; settings: following 7 weeks of treatment; 1.5 mg/day p.o. (E2: capsule)
[8] = system: Ishikawa human endometrial cancer cells; settings: references 16-19; cited from earlier work
T47D:A18/PKCα cells [9] = assay: Colony formation assay in […], T47D:A18/PKCα; assay type: cell-based; settings: 3D culture, 10 days; E2 1 nM, BTC 100 nM, TTC-352 100 nM
Protocol: as §1, §2

T47D:A18/PKCα cells [10] = assay: DNA growth assay (2D culture), T47D:A18/PKCα; assay type: cell-based; settings: E2-free media, 1 nM, 10 nM, 100 nM
[11] = system: ERα transcriptional activity in T47D:A18/PKCα cells; assay: ERE-luciferase reporter assay, T47D:A18/PKCα; assay type: cell-based; settings: for ER agonist character in T47D:A18/PKCα cells in vitro: ERE-luciferase, 1 nM, 10 nM, 100 nM
T47D:A18/neo tumors = assay: T47D:A18/neo xenograft tumor growth; assay type: in vivo, mice; settings: for stimulation of growth of T47D:A18/neo xenograft tumors in vivo: 1.5 mg/day p.o., seven weeks; for T47D:A18/neo average tumor size: following seven weeks of treatment, 1.5 mg/day p.o. (E2: capsule)
[12] = juvenile female rats, after 3 days of drug administration; cited from earlier work
[13] = system: T47D/PKCα xenograft tumors; assay: T47D/PKCα TAM-resistant xenograft tumors (Example 11); assay type: in vivo, mice; settings: TTC-352 or raloxifene 1.5 mg/day p.o., seven weeks, also after withdrawal; E2 capsule
[14] = system: T47D-Tam1 xenograft tumors; assay: T47D-Tam1 TAM-resistant xenograft tumors (Example 11); assay type: in vivo, mice; settings: TTC-352 1.5 mg/day p.o. daily for seven weeks; E2 capsule
[15] = silastic capsules (1.0 cm) implanted subcutaneously; reference 14; cited from earlier work
uteri [16] = settings: references 29-32, cited from earlier work
[17] = humans; cited from earlier work
T47D:A18/PKCα cells [18] = settings: reference 11; cited from earlier work
uteri [19] = assay: Uterine weights of mice (Example 11); assay type: in vivo; settings: TTC-352 1.5 mg/day

| SMILES | body weight of treated mice [1] | persistence of T47D:A18/PKCα tumor regression after end of treatment (T47D:A18/PKCα tumors) | T47D:A18/PKCα mean tumor size (T47D:A18/PKCα tumors) | T47D:A18/PKCα tumor regression (T47D:A18/PKCα tumors) | ERα localization in regressing T47D:A18/PKCα tumors (ERα) | estrogen agonist/antagonist character in MCF-7 cells [3] | effect on the proliferation of T47D:A18/neo cells relative to E2 (T47D:A18/neo cells [4]) | T47D:A18/neo colony growth in MATRIGEL (T47D:A18/neo cells [5]) | uterine weights of ovariectomized mice (uteri [7]) | estrogen agonist/antagonist character in Ishikawa cells [8] | potency in Ishikawa cells relative to E2 [8] | T47D:A18/PKCα colony formation in MATRIGEL (T47D:A18/PKCα cells [9]) | proliferation of T47D:A18/PKCα cells (DNA content) (T47D:A18/PKCα cells [10]) | ER agonist character in T47D:A18/PKCα cells in vitro [11] | stimulation of growth of T47D:A18/neo xenograft tumors in vivo (T47D:A18/neo tumors) | T47D:A18/neo average tumor size (T47D:A18/neo tumors) | T47D/PKCα xenograft tumor response [13] | T47D-Tam1 xenograft tumor response [14] | other results |
| --- | --- | --- | --- | --- | --- | --- | --- | --- | --- | --- | --- | --- | --- | --- | --- | --- | --- | --- | --- |
| Oc1ccc(-c2cc3ccc(O)cc3s2)cc1 [BTC, 2-(4-hydroxyphenyl)benzo[b]thiophen-6-ol] | no effect | sustained for at least four weeks post-treatment | ~0.07 cm^2 | ~88% | exit of ERα from the nucleus | estrogen agonist | comparable to E2(1 nM) treatment | stimulated | no significant increase in the uterine weights | nanomolar estrogen agonists | three orders of magnitude below that of E2 | inhibited | proliferated in the presence of BTC and TTC-352 at all concentrations tested | act as ER agonists | neither compound was able to significantly stimulate the growth | ~0.04 cm^2 |  |  | concentration at 6 h ([2]; female, mouse, plasma, 6 h): 10 ng/mL; peak plasma concentration ([2]; at 30 min): 40 ng/mL; ERα transcriptional activity (ERE-luciferase) in T47D:A18/neo cells [6]: increase in ERα transcriptional activity; ERE-luciferase induction in T47D:A18/PKCα cells compared with T47D:A18/neo cells ([11]; 100 nM and 10 nM): more sensitive than T47D:A18/neo cells |
| Oc1ccc(-c2sc3cc(O)ccc3c2Oc2ccc(OCCN3CCCCC3)cc2)cc1 [DMA, Desmethylarzoxifene] |  |  |  |  |  |  |  |  |  |  |  |  |  |  |  |  |  |  | remaining drug in plasma [12]: not observed above detection limits |
| C[C@]12CC[C@@H]3c4ccc(O)cc4CC[C@H]3[C@@H]1CC[C@@H]2O [E2, 17β-estradiol, reference compound] |  |  |  | ~98% |  |  |  | stimulated | significant proliferative actions |  |  | inhibited |  |  |  | ~0.35 cm^2 | growth is inhibited by E2 treatment | growth is inhibited by E2 treatment | mean serum E2 level [15]: 379.5 pg/mL |
| O=C(c1ccc(OCCN2CCCCC2)cc1)c1c(-c2ccc(O)cc2)sc2cc(O)ccc12 [RAL, raloxifene] |  | failure of RAL-induced regression to persist after drug withdrawal |  | ~50% |  | estrogen antagonist |  |  |  | estrogen antagonist |  |  |  |  |  |  | caused tumor regression, however, drug withdrawal led to relapse |  | luminal epithelial cell thickness in ovariectomized rats (uteri [16]; doses up to 10 mg/kg/day): did not increase luminal epithelial cell thickness; uterine weight in ovariectomized rats (uteri [16]; minimally effective dose): did not increase uterine weight; oral clearance [17]: 441 kg⁻¹ h⁻¹; T47D:A18/PKCα MATRIGEL colony formation (previously reported) (T47D:A18/PKCα cells [18]): unable to inhibit MATRIGEL colony formation |
| CC/C(=C(\c1ccccc1)c1ccc(OCCN(C)C)cc1)c1ccccc1 [TAM, tamoxifen] |  |  |  |  |  |  |  |  | significant proliferative actions |  |  |  |  |  |  |  | TAM-resistant |  |  |
| Oc1ccc(Oc2sc3cc(O)ccc3c2-c2ccc(F)cc2)cc1 [TTC-352, 3-(4-fluorophenyl)-2-(4-hydroxyphenoxy)benzo[b]thiophen-6-ol] | no effect | sustained for at least four weeks post-treatment | ~0.18 cm^2 | ~70% | exit of ERα from the nucleus | estrogen agonist | comparable to E2(1 nM) treatment | stimulated | no significant increase in the uterine weights | nanomolar estrogen agonists | three orders of magnitude below that of E2 | inhibited | proliferated in the presence of BTC and TTC-352 at all concentrations tested | act as ER agonists | neither compound was able to significantly stimulate the growth | ~0.1 cm^2 | tumor regression comparable to that of E2-treated tumors | tumor regression comparable to that of E2-treated tumors | uterine weight in mice (uteri [19]): did not increase uterine weight; ERα transcriptional activity (ERE-luciferase) in T47D:A18/neo cells ([6]; 24 hours): increase in ERα transcriptional activity |
